A word on the inhibition: it is the relative decrease from the control value, in per cent. As usually defined, the Kd is a measure of binding affinity in units of concentration.

This is an account of results in patent publication US5885987A, “Phenylene derivatives” (Kowa Co., Ltd., priority 1996, dated 1999).

The target of assay [1] is T1, H1 receptor (Cavia porcellus, UniProt P31389).
T1 construct: guinea pig cerebromembranous protein; from tissue; host or cells: guinea pig cerebral (brain) membranes
T1 sequence (P31389 whole entry): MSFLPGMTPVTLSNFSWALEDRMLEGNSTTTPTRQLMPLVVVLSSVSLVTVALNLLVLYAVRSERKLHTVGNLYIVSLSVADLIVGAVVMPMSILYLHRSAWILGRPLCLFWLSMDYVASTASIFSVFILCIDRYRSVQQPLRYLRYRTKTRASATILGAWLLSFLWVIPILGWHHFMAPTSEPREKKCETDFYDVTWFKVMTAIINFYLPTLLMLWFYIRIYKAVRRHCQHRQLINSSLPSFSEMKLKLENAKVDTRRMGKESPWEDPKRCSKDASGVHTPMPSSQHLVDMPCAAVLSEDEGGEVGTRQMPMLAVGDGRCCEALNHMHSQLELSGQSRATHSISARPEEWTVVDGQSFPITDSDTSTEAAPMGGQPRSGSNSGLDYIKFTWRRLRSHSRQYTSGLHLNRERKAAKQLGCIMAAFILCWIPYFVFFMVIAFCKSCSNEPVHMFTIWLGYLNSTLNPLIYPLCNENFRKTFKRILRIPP
Description: H1 receptor binding inhibition test ([^3 H]mepyramin, guinea pig cerebromembranous protein). Conditions: for inhibition at 100 µM: a: 100 μM, read-out: H1 receptor (%), inhibition rate; for Kd: read-out: H1 receptor, dissociation constant KD. As to the method: 1) H1 Receptor Binding Inhibition Test
An ice-cooled phosphate buffer was added to terminate the reaction, followed by immediate filtration through a Wattman CF/C filter. The filter was washed twice with 20 ml aliquots of the ice-cooled buffer. The radioactivity of the residue was measured by a liquid scintillation counter. From a measurement value obtained without the addition of the test compound and measurements values obtained upon addition of the test compound at various concentrations, the dose-response of the inhibitory action of the test compound was measured and the 50% inhibitory concentration (IC50) was determined. Using the Cheng-Prusoff formula, a dissociation constant was calculated from the IC50. In a binding assay, 10^-4 M R(-)dimethindene was used for the measurement of a nonspecific binding.

Assay [2] concerns the target T2, LTD4 receptor (Cavia porcellus, UniProt Q2NNR5).
T2 construct: guinea pig pulmomembranous protein; from tissue; host or cells: guinea pig lung membranes
T2 sequence (Q2NNR5 1-340): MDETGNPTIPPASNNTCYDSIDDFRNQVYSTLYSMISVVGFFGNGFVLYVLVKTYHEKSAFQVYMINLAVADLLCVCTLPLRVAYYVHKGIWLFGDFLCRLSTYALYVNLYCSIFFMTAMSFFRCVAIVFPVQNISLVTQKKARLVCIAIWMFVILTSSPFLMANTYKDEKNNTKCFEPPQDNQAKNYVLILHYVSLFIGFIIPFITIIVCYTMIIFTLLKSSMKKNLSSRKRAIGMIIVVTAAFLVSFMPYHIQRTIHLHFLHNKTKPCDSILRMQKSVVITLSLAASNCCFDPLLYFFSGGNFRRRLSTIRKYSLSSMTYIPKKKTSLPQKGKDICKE
Description: LTD4 receptor binding inhibition test ([^3 H]leukotriene D4, guinea pig pulmomembranous protein). Conditions: for Kd: read-out: LTD4 receptor, dissociation constant KD. The procedure:
2) LTD4 Receptor Binding Inhibition Test
An ice-cooled tris hydrochloride/sodium chloride buffer (10 mM/100 mM, pH 7.5) was added to terminate the reaction, followed by immediate filtration through a Wattman CF/C filter. The filter was washed twice with 20 ml aliguots of the ice-cooled buffer. The radioactivity of the residue was measured by a liquid scintillation counter. […] In a binding assay, 2 μM leukotriene D4 was used for the measurement of a nonspecific binding.

Take `CCCCCCc1cc(OCc2cccc(OCc3ccc4ccccc4n3)c2)cc2c1C(C)(C)C(=O)N2` [Example 16, 3,3-Dimethyl-4-(n-hexyl)-6-[3-(2-quinolinylmethoxy)benzyloxy]-2,3-dihydro-1H-indol-2-one]: the inhibition at 100 µM in assay [1] turned out to be 48%. Further, the Kd in assay [2] was 2.5 µM.

Turning to `CC1(C)C(=O)Nc2ccc(OCc3ccc(OCc4ccc5ccccc5n4)cc3)cc21` [Example 18, 3,3-dimethyl-5-[4-(2-quinolinylmethoxy)benzyloxy]-2,3-dihydro-1H-indol-2-one], the dissociation constant Kd in assay [1] worked out at 78.7 µM; in assay [2], 1.1 µM.

With `Cc1ccc(OCc2ccc(OCc3ccc4ccccc4n3)cc2)c2c1NC(=O)CC2` [Example 21, 8-Methyl-5-[4-(2-quinolinylmethoxy)benzyloxy]-1,2,3,4-tetrahydroquinolin-2-one], in assay [1], the inhibition at 100 µM turned out to be 28%. For the same molecule, the inhibition at 10 µM in assay [2] (b: 10 μM, read-out: LTD4 receptor (%), inhibition rate) is 33%.

Take `O=C1CCc2cc(OCc3ccc(OCc4ccc5ccccc5n4)cc3)ccc2N1` [Example 22]: the inhibition at 100 µM in assay [1] was 45%. Besides, in assay [2], the dissociation constant Kd amounted to 1.24 µM.

For `O=C1CCc2ccc(OCc3ccc(OCc4ccc5ccccc5n4)cc3)cc2N1` [Example 23], in assay [1], the inhibition at 100 µM was determined as 41%. The Kd in assay [2] stood at 0.5 µM.

As to `O=C1CCc2cccc(OCc3ccc(OCc4ccc5ccccc5n4)cc3)c2N1` [Example 24, 8-[4-(2-Quinolinylmethoxy)benzyloxy]-1,2,3,4-tetrahydroquinolin-2-one], the equilibrium dissociation constant (Kd) in assay [1] is 25.8 µM; in assay [2], 0.301 µM.

In the case of `O=C1CCCc2cc(OCc3ccc(OCc4ccc5ccccc5n4)cc3)ccc2N1` [Example 25, 7-[4-(2-Quinolinylmethoxy)benzyloxy]-2,3,4,5-tetrahydro-1H-benzo[b]azepin-2-one], the values for the Kd in assay [1] and in assay [2] were 57.8 µM and 0.129 µM, respectively.

Regarding `Cc1ccc(OCc2ccc(OCc3ccc4ccccc4n3)cc2)c2c1NC(=O)C2(C)C` [Example 27, 4-[4-(2-Quniolinylmethoxy)benzyloxy]-3,3,7-trimethyl-2,3-dihydydro-1H-indol-2-one], the inhibition at 100 µM in assay [1] was determined as 38%. Further, the Kd in assay [2] was found to be 0.139 µM.

In the case of `CC1(C)C(=O)Nc2cc(OCc3ccc(OCc4ccc5ccccc5n4)cc3)ccc21` [Example 28, 3,3-Dimethyl-6-[4-(2-quinolinylmethoxy)benzyloxy]-2,3-dihydro-1H-indol-2-one], the inhibition at 100 µM in assay [1] was determined as 30%. Besides, the Kd in assay [2] worked out at 1.4 µM.

Take `CCCCCCc1cc(OCc2ccc(OCc3ccc4ccccc4n3)cc2)cc2c1C(C)(C)C(=O)N2` [Example 29, 3,3-Dimethyl-4-(n-hexyl)-6-(4-(2-quinolinylmethoxy)benzyloxy]-2,3-dihydro-1H-indol-2-one]: in assay [1], the inhibition at 100 µM stood at 34%. For the same molecule, the dissociation constant (Kd) in assay [2] amounted to 3.1 µM.

As for `O=C1CCc2ccc(OCc3cccc(OCc4ccc5ccc(Cl)cc5n4)c3)cc2N1` [Example 31, 7-[3-(7-chloro-2-quinolinylmethoxy)benzyloxy]-1,2,3,4-tetrahydroquinolin-2-one], the Kd in assay [1] turned out to be 19.8 µM; in assay [2] it was 0.304 µM.

For `O=C1CSc2cc(OCc3cccc(OCc4ccc5ccc(Cl)cc5n4)c3)ccc2N1` [Example 32, 7-[3-(7-chloro-2-quinolinylmethoxy)benzyloxy]-3,4-dihydro-2H-1,4-benzothiazin-3-one], the inhibition at 100 µM in assay [1] was determined as 43%. In addition, the Kd in assay [2] turned out to be 0.109 µM.

For `O=C1CCc2ccc(OCc3cccc(OCc4ncc5ccccc5n4)c3)cc2N1` [Example 34, 7-[3-(2-quinazolinylmethoxy)benzyloxy]-1,2,3,4-tetrahydroquinolin-2-one], the equilibrium dissociation constant (Kd) in assay [1] was determined as 100 µM; in assay [2], 0.196 µM.

In the case of `Cn1c(COc2cccc(COc3ccc4c(c3)SCC(=O)N4)c2)nc2ccccc21` [Example 36, 7-(3-(N-methylbenzimidazo1-2-yl-methoxy)benzyloxy]-3,4-dihydro-2H-1,4-benzothiazin-3-one], the dissociation constant (Kd) in assay [1] amounted to 16.2 µM; in assay [2], 0.135 µM.
